Results taken from patent publication US8975371B2, “Melanoma antigen peptide and uses thereof” (INSERM (Institut National de la Sante et de la Recherche …, priority 2008, dated 2015).
Like-named read-outs stand apart in the source and are kept apart here.

Columns and labels:
Type in all cases: cell-based, human
[1] = test system: M170.51 CTL clone / peptide-pulsed T2 cells; assay: Cytotoxicity of M170.51 CTL clone against peptide-pulsed T2 cells (4 h 51Cr release); conditions: peptide loaded on T2 cells
Experimental: (§1) (A) Structure of meloe cDNA. Black boxes correspond to ORFs tested for recognition by the CTL clone. (B) M170.48 and M170.51 TNF responses to COS-7 cells (E/T ratio 1/3) transfected with indicated plasmids. T cell clone was added 2 days after the transfection and the CTL clone reactivity was assessed by a TNF release assay. (C) Amino acid sequences of the ORF 1230-1370 and the ORF 285-404 of meloe isolated from M134 cDNA library. (D and E) Cytotoxicity of M170.48 CTL clone (D) and M170.51 CTL clone(E) against peptide-pulsed T2 cells. Target cells were chromium labeled for 60 min and incubated for 30 min with a range of the indicated peptides. T cell clones were added at an E/T ratio of 10/1 and chromium release was then measured after a 4 h incubation period.
(§2) Cytotoxic activity of T cells was measured in a standard 4-h assay against ^51Cr-labeled cells (peptide-loaded T2 cells or tumor cell lines) (23). […] After staining, cells were resuspended in PBS and analyzed on a LSR flow cytometer using Cell Quest software. […]

[2] = test system: M170.48 CTL clone / peptide-pulsed T2 cells; assay: Cytotoxicity of M170.48 CTL clone against peptide-pulsed T2 cells (4 h 51Cr release); conditions: peptide loaded on T2 cells
Experimental: as §1, §2

[3] = test system: MELOE-1 specific T cell clones / peptide-loaded T2 cells; assay: Relative avidity of MELOE-1 specific T cell clones, 4-h 51Cr assay against peptide-loaded T2 cells
Experimental: Cytotoxicity of MELOE-1 specific CTL clones against peptide-pulsed T2 cells. Target cells were chromium labeled for 60 min and incubated for 30 min with a range of the MELOE-136-44 peptide. T cell clones derived from healthy donors (A), melanoma patients PBMC (B) and TIL (C) were added at an E/T ratio of 10/1 and chromium release was then measured after a 4 h incubation period. (D) Mean EC50 of the MELOE-1 specific T cell clones in response to the MELOE-136-44 peptide, according to their origin. EC50 were compared using statistical analysis done with InStat 2.01. Data were analyzed using Kruskal-Wallis comparison test. *p=0.019, considered significant.
The relative avidity of […] specific T cell clones and their anti-tumor reactivity was measured respectively in a standard 4-h assay against ^51Cr-labeled peptide-loaded T2 cells and towards HLA-A2 melanoma cell lines. Briefly, target cells (peptide pulsed-T2 or melanoma cells) were incubated with 100 μCi Na2^51CrO4 (Oris Industrie, Gif-sur-Yvette, France) at 37° C. for 1 h. For peptide recognition assays, T2 cells were preincubated with a range of […] peptide concentrations for 1 h at 37° C. […] Data were analyzed using Kruskal-Wallis comparison test, followed by Dunn'post test. […]

Row | Sequence | recognition by M170.51 T cell clone [1] | EC50 ([1]; M170.51 CTL clone, E/T ratio 10/1, 4 h chromium release, read-out: half maximal lysis (converted)) [nM] | recognition by M170.48 T cell clone [2] | EC50 ([2]; M170.48 CTL clone, E/T ratio 10/1, 4 h chromium release, read-out: half maximal lysis) [nM] | EC50 ([3]; healthy donor clonotype HD1.21, read-out: EC50 of clonotype HD1.21) [nM] | EC50 ([3]; healthy donor clonotype HD3.38, read-out: EC50 of clonotype HD3.38) [nM]
1 | RCPPKPPLA | recognized | 50 |  |  |  | 
2 | TLNDECWPA |  |  | recognized | 10 | 10 | 1
